For one assay, the system named is C. albicans. The assay is described as follows: Checkerboard synergy assay with polysaccharide synthesis inhibitors. It is filed as cell-based, Candida albicans. Particulars: for MIC: Candida albicans, read-out: MIC of polysaccharide synthesis inhibitor alone. As for the experimental part: (§1) Saccharomyces cerevisiae deletion strains were retrieved from the haploid non-essential deletion collection (ThermoScientific) and were isogenic with the wild type BY4741 (MATa his3Δ1 leu2Δ0 met15Δ0 ura3Δ0). Candida albicans experiments were performed with strain ATCC90028.
(§2) Antifungal assays were performed as described in ([Bleackley et al., 2014]). S. cerevisiae cells were prepared by diluting to an OD600 = 0.01 and C. albicans cells were diluted to OD600 = 0.0002 in ½ strength potato dextrose broth (1/2 PDB) (Becton Dickinson). Assays investigating the combined effect of chemical cell wall synthesis inhibitors with defensins were performed as described in ([Bleackley et al., 2017]). Synergy was assessed using the fractional inhibitory concentration (FIC) equation. FIC=MICAcombination/MICAalone+MICBcombination/MICBalone
(§3) Synergy is defined as an FIC value of less than 0.5. Assays investigating the activity of defensins in salt were set up using the same checkerboard method as the synergy assays but with NaCl in place of one of the antifungal molecules.

The nature of assay [1]: Polysaccharide binding (solution depletion) to yeast β-glucan. The following applies: one-site binding model. The protocol: (§4) Defensin binding to polysaccharides was examined using the protocol described in ([Osmond et al., 2001]) with some modifications. Briefly, the insoluble polysaccharides, yeast β-glucan (Megazyme), chitin from shrimp shells (Sigma), and microcrystalline cellulose (Sigma) were washed twice with water and once with phosphate buffered saline (PBS) and resuspended in PBS at 100 mg/mL. The appropriate volume of polysaccharide suspension was transferred to a 1.5 mL microfuge tube. PBS was added to increase the volume to 47.5 µL followed by defensin (2.5 µL of 0.8 mg/mL in H2O). This mixture was incubated on a rotating wheel at room temperature for 30 min before insoluble polysaccharide was pelleted at 17 000 g. Supernatant (25 µL) was transferred to a clean 1.5 mL microfuge tube, mixed with 5 µL of a 1:9 mix of Bond Breaker reducing agent (ThermoFisher):NuPage LDS Loading Buffer (Invitrogen) and heated to 95 °C for 20 min. Samples (20 µL) were loaded onto a 10% NOVEX Bolt BisTris gel (Life Technologies). Proteins were visualized by staining with RAPIDstain (Calbiochem) and imaged on a ChemiDoc (Bio-Rad). Densitometry was performed on resulting bands using the quantitation tool in ImageLab (V4.0 Bio-Rad) and the abundance of defensin remaining in the supernatant was calculated relative to the no polysaccharide control. Relative binding to the pellet was inferred as the amount of defensin that had been depleted from the supernatant (1-relative binding to pellet). All experiments were performed in triplicate. Kd values were calculated by plotting the relative binding vs the polysaccharide concentration in Prism (V7.0 GraphPad) and using the non-linear regression tool with the one-site binding hyperbola equation.

Assay [2] is described as follows: Polysaccharide binding (solution depletion) to chitin. Also noted: species or system shrimp. The following applies: one-site binding model. As for the experimental part:
as §4

A short description of assay [3]: Polysaccharide binding (solution depletion) to cellulose. Particulars: SDS-PAGE analysis of supernatant, 3 independent experiments. The protocol: as §4, with “Samples (20 µL) were loaded onto a 10% NOVEX Bolt BisTris gel (Life Technologies). Proteins were visualized by staining with RAPIDstain (Calbiochem) and imaged on a ChemiDoc (Bio-Rad).” left out, “Relative binding to the pellet was inferred as the amount of defensin that had been depleted from the supernatant (1-relative binding to pellet). All experiments were performed in triplicate.” left out

Assay [4] relates to S. cerevisiae BY4741. As to the kind of experiment: Antifungal growth assay, wild type. It is filed as cell-based, Saccharomyces cerevisiae. Particulars: 1/2 PDB, twofold dilution series, lowest concentration with no visible growth, three independent experiments. As for the experimental part: as §1, §2
A further assay concerns S. cerevisiae fks1Δ. The assay is described as follows: Antifungal growth assay, 1,3-β-glucan synthase deletion strain. It is filed as cell-based, Saccharomyces cerevisiae. Particulars: 1/2 PDB, twofold dilution series, lowest concentration with no visible growth, three independent experiments. As for the experimental part: as §1, §2
For a further assay, the system named is S. cerevisiae chs3Δ. As to the kind of experiment: Antifungal growth assay, chitin synthase deletion strain. Particulars: 1/2 PDB, twofold dilution series, lowest concentration with no visible growth, three independent experiments. It is filed as cell-based, Saccharomyces cerevisiae. The protocol:
as §1, §2

For assay [5], the system named is S. cerevisiae. The assay is described as follows: Checkerboard synergy assay with polysaccharide synthase inhibitors. Format: cell-based, Saccharomyces cerevisiae. The following applies: average of three independent experiments ± standard deviation, synergy FIC <0.5. The protocol: as §2, §3
In another assay the test system is yeast spheroplasts. The assay is described as follows: Cell death of spheroplasts, SYTOX green flow cytometry. Format: cell-based, Saccharomyces cerevisiae. As for the experimental part: (§5) Spheroplasts were prepared as outlined in ([Guthrie and Fink, 2002]) with modifications. Cells were prepared with and without the addition of zymolyase (Sigma) and washed twice with ½ PDB with 1 M sorbitol prior to any defensin treatment. Successful hydrolysis of the cell wall was assessed by pelleting an aliquot of spheroplasts, resuspending in MilliQ H2O and assessing cell lysis. For survival assays, intact cells or spheroplasts were diluted in ½ PDB with 1 M sorbitol to an OD600 = 1. NaD1 (10 µL) at 0, 25, 50 or 100 µM was added to 90 µL of prepared cells or spheroplasts and incubated at 30 °C for 30 min. Serial dilutions of each treatment were plated onto YPD and incubated for 24 h at 30 °C prior to imaging. Assessment of the effect of NaCl on the activity of NaD1 on spheroplasts was conducted as described above except for the addition of 100 mM NaCl to the ½ PDB 1 M sorbitol in the appropriate treatment. The cell death indicator, SYTOX green (ThermoFisher), was added to all treatments to a final concentration of 1 µM and FACS analysis was performed using a FACS Canto II (BD biosciences) using the FITC settings. Analysis was performed using Weasel V3.0 (Walter and Eliza Hall Institute of Medical Research).

For assay [6], the system named is yeast cells with intact cell walls. The assay is described as follows: Cell death of intact yeast cells, SYTOX green flow cytometry. Format: cell-based, Saccharomyces cerevisiae. As for the experimental part: as §5
Assay [7] has as its system S. cerevisiae BY4741. As to the kind of experiment: Survival assay in the presence of exogenous 1,3-β-glucan (laminarin). It is filed as cell-based, Saccharomyces cerevisiae. The following applies: plated on YPD agar; for Laminarin concentration protecting against the antifungal activity of NaD1: 20 µM NaD1, 1 h. As for the experimental part:
To assess the effect of exogenous 1,3-β-glucan on the activity of NaD1, a survival assay was employed essentially as described in ([Bleackley et al., 2017]). A two-fold dilution series of laminarin (Sigma) from 50 mg/mL was prepared in MilliQ H2O and 10 µL of each concentration plus a no laminarin control were transferred to the wells of a U-bottom 96 well microtitre plate (Greiner Bio-one). NaD1 (10 µL of 200 µM solution) was added to each laminarin preparation. Controls with no NaD1 or laminarin were also prepared. An overnight culture of S. cerevisiae BY4741 cells was diluted to OD600 = 0.1 in ½ PDB. The diluted yeast cell suspension was then added to each of the wells of the microtitre plate and incubated at 30 °C with shaking at 750 rpm in a Thermomixer (Eppendorff) for 1 h. A fivefold dilution series of each treatment was then spotted onto YPD agar (1% yeast extract, 2% peptone, 2% dextrose, 2% agar) and incubated at 30 °C prior to imaging.

Assay [8] has as its system S. cerevisiae. As to the kind of experiment: Growth inhibition in varying NaCl (checkerboard). Format: cell-based, Saccharomyces cerevisiae. Particulars: 1/2 PDB; for Effect of increasing NaCl concentration on growth inhibitory activity: NaCl checkerboard up to about 100 mM, representative of three independent replicates. The protocol: as §2, §3
The mark [9] stands for this setting: insoluble polysaccharide in PBS, 30 min room temperature, SDS-PAGE densitometry of supernatant, Kd based on concentration of monosaccharide units, ± SEM, three independent replicates.
Setting [10] is: solution depletion, SDS-PAGE densitometry, polysaccharide mass concentration, 3 independent experiments.
The mark [11] stands for this setting: C. albicans checkerboard, synergy defined as FIC < 0.5.

This is an account of results in article PMC7389181, “The interaction with fungal cell wall polysaccharides determines the salt tolerance of antifungal plant defensins” (The Cell Surface, 2019).

Take `CC[C@H](C)C[C@H](C)CCCCCCCCC(=O)N[C@H]1C[C@@H](O)[C@@H](NCCN)NC(=O)[C@@H]2[C@@H](O)CCN2C(=O)[C@H]([C@H](O)CCN)NC(=O)[C@H]([C@H](O)[C@@H](O)c2ccc(O)cc2)NC(=O)[C@@H]2C[C@@H](O)CN2C(=O)[C@H]([C@@H](C)O)NC1=O` [caspofungin, reference compound]: in the assay on C. albicans, the MIC turned out to be 0.25 µg/mL.
Turning to “NaD1: plant defensin from the ornamental tobacco Nicotiana alata, isolated from flowers (RECKTESNTFPGICITKPPCRKACISEKFTDGHCSKILRRCLCTKPC; UniProt Q8GTM0 26-72, looked up)”, the Kd was determined as 25.9 ± 5 mM in [1] (setting [9]) and 33 ± 11.8 mM in assay [2] (setting [9]). Besides, the “Kd, β-glucan” value in [1] (setting [10]) was found to be 4200 ± 800 µg/mL. Further, in assay [2] (setting [10]), the “Kd, chitin” value came to 6700 ± 2400 µg/mL. Moreover, the Binding to cellulose entry in [3] is “did not bind”. Further, the results for the MIC with S. cerevisiae BY4741 [4], in the assay on S. cerevisiae fks1Δ and in the assay with S. cerevisiae chs3Δ were 2.5 µM, 1.25 µM and 2.5 µM, respectively. Also, the “FIC in combination with caspofungin” value is listed as 0.3 in the assay on C. albicans (setting [11]) and 0.3 ± 0.06 in the assay with S. cerevisiae [5]. The “FIC in combination with nikkomycin Z” value with C. albicans (setting [11]) was 0.92. Further, the “NaD1 concentration giving significant cell death” value in the assay on yeast spheroplasts (1 M sorbitol with 100 mM NaCl, SYTOX green) is recorded as no less than 0.313 µM. Further, the “Cell death (SYTOX green)” value is reported as “over 60%” in the assay on yeast spheroplasts (NaD1 concentrations above 0.625 µM, 1/2 PDB with 1 M sorbitol, 30 °C 30 min) and 60% in assay [6] (NaD1 5 µM, 1/2 PDB with 1 M sorbitol, 30 °C 30 min). Further, the “Effect on cell death” value in [6] (1 M sorbitol with 100 mM NaCl, up to 10 µM NaD1, SYTOX green) is listed as “unaffected”. Also, the “Survival of yeast cells” value with S. cerevisiae BY4741 [7] (20 µM NaD1, absence of laminarin, 1 h) is listed as “eliminated all viable yeast cells”. Besides, the “Effect of increasing NaCl concentration on growth inhibitory activity” value in the assay on S. cerevisiae [8] is listed as “progressively poorer inhibitor”.
With “DmAMP1: defensin from Dahlia merckii expressed in Pichia pastoris (ELCEKASKTWSGNCGNTGHCDNQCKSWEGAAHGACHVRNGKHMCFCYFNC; UniProt P0C8Y4 1-50, looked up)”, the “Kd, β-glucan” value in assay [1] (setting [9]) is listed as “No binding”. Moreover, the “Kd, chitin” value in assay [2] (setting [9]) is recorded as “Neither TsD10 nor DmAMP1 bound”. Also, the MIC with S. cerevisiae BY4741 [4] is given as 0.31 µM; in the assay on S. cerevisiae fks1Δ, 0.16 µM; in the assay with S. cerevisiae chs3Δ it was 0.31 µM. The “FIC in combination with caspofungin” value in the assay on S. cerevisiae [5] is reported as 0.6 ± 0.06. The “FIC in combination with nikkomycin” value in the assay with S. cerevisiae [5] amounted to 0.64 ± 0.16. Further, the “Effect of increasing NaCl concentration on growth inhibitory activity” value in the assay with S. cerevisiae [8] was “no loss of growth inhibitory activity”. For the same compound, the “Concentration completely inhibiting growth” value in the assay on S. cerevisiae [8] (absence of added NaCl, absorbance at 595 nm) stood at 0.313 µM.
On to `C[C@@H]([C@H](N)C(=O)N[C@H](C(=O)O)[C@H]1O[C@@H](n2ccc(=O)[nH]c2=O)[C@H](O)[C@@H]1O)[C@H](O)c1ccc(O)cn1` [nikkomycin Z, reference compound], for which, in the assay on C. albicans, the MIC was determined as 2.5 µg/mL.
For laminarin, the “Laminarin concentration protecting against the antifungal activity of NaD1” value is listed as no less than 1.25 mg/mL in the assay with S. cerevisiae BY4741 [7] and “above 1.25 mg/mL” with S. cerevisiae BY4741 [7] (listed as Laminarin).
